Test results reported in patent US20230391845A1, “GLP-1, GIP AND GLUCAGON RECEPTOR TRIPLE AGONISTS” (priority 2020, published 2023).
*1 amine or outer side, *2 acyl side, *3 side chain or, on linkers, in order; H or OH if unused. Where a SMILES comes first, the peptide text is derived from it. Side-chain parts run from the residue outwards. [ ]: non-standard residue; d: D form. The star is where a group is joined. C18 diacid = O=C(O)CCCCCCCCCCCCCCCCC(=O)*; γGlu = O=C(O)[C@H](CCC(=O)[*:2])N[*:1]; AEEA = NCCOCCOCC(=O)O; Aib = CC(C)(N)C(=O)O

Assays:
[1] = biological target: T1, human GIP receptor (Homo sapiens, UniProt P48546); assay: In vitro functional potency (CRE luciferase; whole cells), human GIPR; assay type: cell-based; settings: BHK CRE luc2P hGIPR whole cells; Table 1, position of substituent varied; read-out: hGIPR CRE Luc EC50
T1 construct: expressed in transfected cells; host or cells: BHK cells (parent line BHKTS13) containing CRE luciferase
T1 sequence (P48546 22-466): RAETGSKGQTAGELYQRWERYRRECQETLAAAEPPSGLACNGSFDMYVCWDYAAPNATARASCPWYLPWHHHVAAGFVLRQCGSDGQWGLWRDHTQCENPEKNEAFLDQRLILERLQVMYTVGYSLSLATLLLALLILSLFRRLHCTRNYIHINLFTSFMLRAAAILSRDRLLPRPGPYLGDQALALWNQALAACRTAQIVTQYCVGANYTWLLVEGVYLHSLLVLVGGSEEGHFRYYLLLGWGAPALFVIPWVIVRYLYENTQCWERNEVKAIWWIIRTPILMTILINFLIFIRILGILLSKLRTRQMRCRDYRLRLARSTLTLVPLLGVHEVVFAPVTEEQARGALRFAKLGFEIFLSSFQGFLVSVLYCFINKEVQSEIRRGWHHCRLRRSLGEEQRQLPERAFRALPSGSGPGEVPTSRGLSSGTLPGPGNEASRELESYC
Procedure: (§1) The purpose of this example is to test the functional activity, or potency, of the compounds in vitro at the human and mouse GLP-1, GIP, and Gcg receptors. The in vitro functional potency is the measure of target receptor activation in a whole cell assay.
(§2) In vitro functional potency was determined by measuring the response of the target receptor in a reporter gene assay in individual cell lines. The assay was performed in stably transfected BHK cell lines that expresses one of the following G-protein coupled receptors: human GLP-1 receptor, human GIP receptor, human Gcg receptor, mouse GLP-1 receptor, mouse GIP receptor, or mouse Gcg receptor; and where each cell line contains the DNA for the cAMP response element (CRE) coupled to a promoter and the gene for firefly luciferase (CRE luciferase). When the respective receptor is activated, it results in the production of cAMP, which in turn results in expression of the luciferase protein. When assay incubation is completed, luciferase substrate (luciferin) is added resulting in the enzymatic conversion of luciferin to oxyluciferin and producing bioluminescence. The luminescence is measured as the readout for the assay.
(§3) The cells lines used in these assays were BHK cells with BHKTS13 as a parent cell line. The cell lines were derived from a clone containing the CRE luciferase element and were established by further transfection with the respective receptor to obtain the relevant cell line.
(§4) The cells were cultured at 37° C. with 5% CO2 in Cell Culture Medium. They were aliquoted and stored in liquid nitrogen. The cells were kept in continuous culture and were seeded out the day before each assay.
(§5) GLP-1R and GcgR Cell Culture Medium consisted of DMEM medium with 10% FBS, 500 µg/mL G418, and 300 µg/mL hygromycin. GIPR Cell Culture Medium consisted of DMEM medium with 10% FBS, 400 µg/mL G418, and 300 µg/mL hygromycin. Assay Buffer consisted of DMEM w/o phenol red, 10 mM Hepes, 1× Glutamax, 1% ovalbumin, and 0.1% Pluronic F-68.
(§6) • 1) Cells were plated at 5000 cells/well and incubated overnight in the assay plate. • 2) Cells were washed once in DPBS. • 3) Stocks of the test compounds and reference compounds in concentrations ranging from 100-300 pM were diluted 1:150 in Assay Buffer.
(§7) The data from the microtiter plate reader was first regressed in an Excel in order to calculate the x-axis, log scale concentrations based on the individual test compound's stock concentration and the dilutions of the assay. […] The software performs a non-linear regression (log(agonist) vs response). A minimum of two replicates was measured for each sample. The reported values are averages of the replicates.

[2] = Pharmacokinetic study in minipigs, i.v. administration; parameters: species or system Göttingen minipigs; settings: female, Göttingen, minipig, in vivo, iv
In short: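 Female Göttingen minipigs (7-14 months, 16-35 kg), fasted ~18 h pre-dose to 4 h post-dose, received i.v. injections of usually 1.5-2 nmol/kg via central venous catheter. Plasma sampled up to 14 days, assayed by ELISA or LCMS; terminal half-life (harmonic mean) from non-compartmental analysis.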

[3] = biological target: T2, human Gcg receptor (Homo sapiens, UniProt P47871); assay: In vitro functional potency (CRE luciferase; whole cells), human GcgR; assay type: cell-based; settings: BHK CRE luc2P hGcgR whole cells; Table 1, position of substituent varied; read-out: hGcgR CRE Luc EC50
T2 construct: expressed in transfected cells; host or cells: BHK cells (parent line BHKTS13) containing CRE luciferase
Procedure: as §1, §2, §3, §4, §5, §6, §7

[4] = biological target: T3, human GLP-1 receptor (Homo sapiens, UniProt P43220); assay: In vitro functional potency (CRE luciferase; whole cells), human GLP-1R; assay type: cell-based; settings: BHK CRE luc2P hGLP-1R whole cells; Table 1, position of substituent varied; read-out: hGLP-1R CRE Luc EC50
T3 construct: expressed in transfected cells; host or cells: BHK cells (parent line BHKTS13) containing CRE luciferase
T3 sequence (P43220 24-463): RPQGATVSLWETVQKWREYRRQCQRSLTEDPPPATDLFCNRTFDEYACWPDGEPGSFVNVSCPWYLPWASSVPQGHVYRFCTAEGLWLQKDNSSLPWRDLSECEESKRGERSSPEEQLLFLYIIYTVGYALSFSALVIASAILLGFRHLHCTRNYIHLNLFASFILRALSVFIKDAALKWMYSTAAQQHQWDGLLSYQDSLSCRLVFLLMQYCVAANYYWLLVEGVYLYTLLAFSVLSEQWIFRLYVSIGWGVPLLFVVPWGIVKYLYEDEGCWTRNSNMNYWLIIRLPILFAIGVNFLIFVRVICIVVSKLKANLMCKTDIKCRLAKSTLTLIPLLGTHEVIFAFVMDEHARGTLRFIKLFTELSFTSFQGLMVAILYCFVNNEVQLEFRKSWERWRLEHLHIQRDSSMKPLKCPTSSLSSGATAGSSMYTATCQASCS

T2 sequence (P47871 26-477): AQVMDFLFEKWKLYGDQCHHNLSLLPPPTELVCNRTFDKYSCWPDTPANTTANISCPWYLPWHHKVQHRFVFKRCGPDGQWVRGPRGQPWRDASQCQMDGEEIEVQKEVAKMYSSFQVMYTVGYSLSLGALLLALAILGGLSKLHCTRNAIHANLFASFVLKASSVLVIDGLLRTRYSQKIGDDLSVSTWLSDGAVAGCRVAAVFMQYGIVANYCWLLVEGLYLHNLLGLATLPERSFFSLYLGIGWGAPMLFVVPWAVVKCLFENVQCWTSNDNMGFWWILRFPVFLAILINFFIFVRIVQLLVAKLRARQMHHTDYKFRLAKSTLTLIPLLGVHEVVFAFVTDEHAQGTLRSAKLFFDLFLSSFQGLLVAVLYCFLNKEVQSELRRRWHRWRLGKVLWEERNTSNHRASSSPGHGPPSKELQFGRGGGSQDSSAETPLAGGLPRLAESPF

| SMILES | EC50 [1] [nM] | half-life [2] [h] | EC50 [3] [nM] | EC50 [4] [nM] |
| --- | --- | --- | --- | --- |
| CC[C@H](C)[C@H](NC(=O)[C@H](CO)NC(=O)[C@H](Cc1ccc(O)cc1)NC(=O)[C@H](CC(=O)O)NC(=O)[C@H](CO)NC(=O)[C@@H](NC(=O)[C@H](Cc1ccccc1)NC(=O)[C@@H](NC(=O)CNC(=O)[C@H](CCC(N)=O)NC(=O)C(C)(C)NC(=O)[C@@H](N)Cc1ccc(O)cc1)[C@@H](C)O)[C@@H](C)O)C(=O)N[C@@H](Cc1ccc(O)cc1)C(=O)N[C@@H](CC(C)C)C(=O)N[C@@H](CC(=O)O)C(=O)N[C@@H](CCCCNC(=O)COCCOCCNC(=O)COCCOCCNC(=O)CC[C@H](NC(=O)CCCCCCCCCCCCCCCCC(=O)O)C(=O)O)C(=O)N[C@@H](CCC(N)=O)C(=O)N[C@@H](C)C(=O)N[C@@H](C)C(=O)NC(C)(C)C(=O)N[C@@H](CCC(=O)O)C(=O)N[C@@H](Cc1ccccc1)C(=O)N[C@H](C(=O)N[C@@H](CC(N)=O)C(=O)N[C@@H](Cc1c[nH]c2ccccc12)C(=O)N[C@@H](CC(C)C)C(=O)N[C@@H](CC(C)C)C(=O)N[C@@H](C)C(=O)NCC(=O)NCC(=O)N1CCC[C@H]1C(=O)N[C@@H](CO)C(=O)N[C@@H](CO)C(=O)NCC(=O)N[C@@H](C)C(=O)N1CCC[C@H]1C(=O)N1CCC[C@H]1C(=O)N1CCC[C@H]1C(=O)N[C@@H](CO)C(N)=O)C(C)C [Compound No. 1] (H-Y[Aib]QGTFTSDYSIYLDK([AEEA-AEEA-γGlu-C18 diacid])QAA[Aib]EFVNWLLAGGPSSGAPPPS-NH2; N-terminus assumed) | 0.0237 | 61 | 0.157 | 0.0086 |
| CC[C@H](C)[C@H](NC(=O)[C@H](CO)NC(=O)[C@H](Cc1ccc(O)cc1)NC(=O)[C@H](CC(=O)O)NC(=O)[C@H](CO)NC(=O)[C@@H](NC(=O)[C@H](Cc1ccccc1)NC(=O)[C@@H](NC(=O)CNC(=O)[C@H](CCC(N)=O)NC(=O)C(C)(C)NC(=O)[C@@H](N)Cc1ccc(O)cc1)[C@@H](C)O)[C@@H](C)O)C(=O)N[C@@H](Cc1ccc(O)cc1)C(=O)N[C@@H](CC(C)C)C(=O)N[C@@H](CC(=O)O)C(=O)N[C@@H](CCCCN)C(=O)N[C@@H](CCCCNC(=O)COCCOCCNC(=O)COCCOCCNC(=O)CC[C@H](NC(=O)CCCCCCCCCCCCCCCCC(=O)O)C(=O)O)C(=O)N[C@@H](C)C(=O)N[C@@H](C)C(=O)NC(C)(C)C(=O)N[C@@H](CCC(=O)O)C(=O)N[C@@H](Cc1ccccc1)C(=O)N[C@H](C(=O)N[C@@H](CC(N)=O)C(=O)N[C@@H](Cc1c[nH]c2ccccc12)C(=O)N[C@@H](CC(C)C)C(=O)N[C@@H](CC(C)C)C(=O)N[C@@H](C)C(=O)NCC(=O)NCC(=O)N1CCC[C@H]1C(=O)N[C@@H](CO)C(=O)N[C@@H](CO)C(=O)NCC(=O)N[C@@H](C)C(=O)N1CCC[C@H]1C(=O)N1CCC[C@H]1C(=O)N1CCC[C@H]1C(=O)N[C@@H](CO)C(N)=O)C(C)C [Compound No. 2] (H-Y[Aib]QGTFTSDYSIYLDKK([AEEA-AEEA-γGlu-C18 diacid])AA[Aib]EFVNWLLAGGPSSGAPPPS-NH2; N-terminus assumed) | 0.0498 | 45 | 0.0476 | 0.0071 |
| CC[C@H](C)[C@H](NC(=O)[C@H](CO)NC(=O)[C@H](Cc1ccc(O)cc1)NC(=O)[C@H](CC(=O)O)NC(=O)[C@H](CO)NC(=O)[C@@H](NC(=O)[C@H](Cc1ccccc1)NC(=O)[C@@H](NC(=O)CNC(=O)[C@H](CCC(N)=O)NC(=O)C(C)(C)NC(=O)[C@@H](N)Cc1ccc(O)cc1)[C@@H](C)O)[C@@H](C)O)C(=O)N[C@@H](Cc1ccc(O)cc1)C(=O)N[C@@H](CC(C)C)C(=O)N[C@@H](CC(=O)O)C(=O)N[C@@H](CCCCN)C(=O)N[C@@H](CCC(N)=O)C(=O)N[C@@H](C)C(=O)N[C@@H](C)C(=O)NC(C)(C)C(=O)N[C@@H](CCCCNC(=O)COCCOCCNC(=O)COCCOCCNC(=O)CC[C@H](NC(=O)CCCCCCCCCCCCCCCCC(=O)O)C(=O)O)C(=O)N[C@@H](Cc1ccccc1)C(=O)N[C@H](C(=O)N[C@@H](CC(N)=O)C(=O)N[C@@H](Cc1c[nH]c2ccccc12)C(=O)N[C@@H](CC(C)C)C(=O)N[C@@H](CC(C)C)C(=O)N[C@@H](C)C(=O)NCC(=O)NCC(=O)N1CCC[C@H]1C(=O)N[C@@H](CO)C(=O)N[C@@H](CO)C(=O)NCC(=O)N[C@@H](C)C(=O)N1CCC[C@H]1C(=O)N1CCC[C@H]1C(=O)N1CCC[C@H]1C(=O)N[C@@H](CO)C(N)=O)C(C)C [Compound No. 3] (H-Y[Aib]QGTFTSDYSIYLDKQAA[Aib]K([AEEA-AEEA-γGlu-C18 diacid])FVNWLLAGGPSSGAPPPS-NH2; N-terminus assumed) | 0.0275 | 33 | 0.0347 | 0.0054 |
